How the values were obtained:
Pah^enu2 mice = assay: Plasma Phe in Pah^enu2 mice after JN-170; assay type: in vivo, mouse
Procedure: Male homozygous BTBR-Pah<enu2>/J (Pah^enu2) aged 10–13 weeks were purchased from Jackson Laboratory (no. 002232). Immediately before dosing, each animal’s bladder was manually emptied and a plasma sample was drawn. Animals were dosed by oral gavage with vehicle (10% DMSO, 20% 2-hydroxypropyl-β-cyclodextrin [Sigma-Aldrich]) followed by a 1-week washout prior to dosing with JN-170 at doses ranging from 50 to 250 mg/kg. Following dosing with vehicle or JN-170, animals were individually placed in metabolic cages to collect urine samples. After collection of each urine sample, cages were rinsed with ultra-pure water to recover residual analytes. Blood samples were collected predose as well as 1, 3, 8, 12, and 24 hours after dosing with vehicle or JN-170 into tubes with EDTA as a […], and plasma was separated by centrifuging samples at 2,200g for 5 minutes at 4°C. Throughout the study, mice had access to food and water ad libitum. Plasma and urine samples were stored at –80°C until processing.Ten-week-old male WT C57Bl/6J animals (Si Bei Fu Laboratory Animal Technology Co. Ltd.) were dosed either with vehicle or 50–250 mg/kg JN-170 by oral gavage and blood and urine samples were collected as described. All animals had unrestricted access to food and water during the study; C57Bl/6J were kept on rodent maintenance diet from Beijing Keao Xieli, Pah^enu2 mice were kept on Teklad diet no. T.2018.
Plasma sample analyses were carried out by liquid chromatography tandem mass spectrometry (LC-MS/MS). Plasma samples were mixed 1:1 with carbamazepine or ^13C6-Phe as internal standards for JN-170 and Phe, respectively. Plasma proteins were precipitated by adding 4 volumes of acetonitrile (ACN) and 0.1% formic acid (FA) followed by centrifugation for 5 minutes at 2,100g. Supernatants were diluted 1:1 in ACN and 0.1% FA. For JN-170, a Waters HSS T3 reversed phase column was used for separation using a binary gradient of 0.1% FA in water (mobile phase A) to 0.1% in ACN (mobile phase B). At a flow rate of 0.8 mL/min, the mobile phase gradient increased from an initial 25% phase B to 95% phase B over 30 seconds. After, 1.5 minutes, the gradient was returned to 25% mobile phase B. For detection of Phe, an Acquity UPLC ethylene bridged hybrid (BEH) amide column was used, with a binary gradient of 10 mM ammonium acetate in 95:5:1 H2O:ACN:FA (mobile phase A) to 10 mM ammonium acetate in 95:5:1 ACN:H2O:FA (mobile phase B). At a flow rate of 0.5 mL/min, the mobile phase gradient changed from an initial 100% phase B to 50% phase B over 2.1 minutes. It was returned to 100% phase B after 4 minutes. Analytes were detected using a Sciex API-5500 in multiple reaction monitoring mode using an electrospray ionization source in the positive ion mode with the following ion transitions: m/z 435.2/84.1 (JN-170), 237.1/194.1 (carbamazepine), 166.1/120.1 (Phe), 172.2/126.2 for (^13C6-Phe). Analyte concentrations were calculated with a 1/×^2 linear regression over a concentration range of 1 or 2 to 5,000 ng/mL for JN-170 and 0.05–100 ng/mL for Phe.
IC50 values for transport inhibition in cells overexpressing SLC6A19 and TMEM27 were calculated using a 4-parameter logistic regression in Collaborative Drug Discovery (CDD). Reported IC50 values are geometric means of 4–6 independent experiments. For postmortem intestinal transport assays, single outliers of quadruplicate replicates were excluded from the calculation if a signal value’s distance to the mean exceeded 35% of the signal average. The IC50 values of individual experiments were calculated with a 3- or 4-parameter logistic regression using GraphPad Prism 9. The reported IC50 value represents the geometric mean of n = 5 experiments from 3 individual donors. Statistical comparison of urinary Phe excretion in Pah^enu2 mice treated with vehicle or JN-170 was conducted using 1-way analysis of variance (ANOVA) with Tukey’s post hoc comparison. […]

healthy volunteers = assay: Phase 1 safety and tolerability, multiple ascending dose (MAD) cohorts; details: for Any CTCAE Grade ≥ 3 / Any TEAE / Death / SAE / TEAE Anxiety / TEAE Contusion / TEAE Dehydration / TEAE Dizziness / TEAE Drug withdrawal headache / TEAE Dysmenorrhea / TEAE Flushing / TEAE Headache / TEAE Musculoskeletal pain / TEAE Myalgia / TEAE Nausea / TEAE Oropharyngeal pain / TEAE Rash / TEAE Skin injury / TEAE Somnolence / TEAE Swelling of eyelid / TEAE Thirst / TEAE Vascular access site pain / TEAEs leading to IP discontinuation: n = 6
Procedure: Eligible participants included males and females 18 to 55 years of age, medically healthy with no clinically notable medical history, a BMI of 18–40 kg/m^2 and total body weight > 50 kg (110 lbs), and who have been nonsmokers for at least 2 weeks prior to and throughout dosing.
In both SAD and MAD studies, safety and tolerability were assessed by AE monitoring, clinical laboratory tests (blood chemistries, hematology, coagulation, serology, and urinalysis), vital signs, 12-lead electrocardiograms, and physical examinations. Safety assessment and corresponding samples were collected on day-1 prior to dosing and days 1, 2, 3, and 8 for the SAD study or throughout the 14 days of dosing and day 21 for the MAD study.

N#Cc1ccc(-c2noc([C@]3(C(F)(F)F)CCN(C(=O)NCCC4(N)CC4)C3)n2)cc1 [JN-170]
plasma Phe, mean ± SD (Pah^enu2 mice; 50 mg/kg, 3 hours): 984 ± 135 µM
plasma Phe lower than predose baseline (Pah^enu2 mice; 50 mg/kg, 3 hours after dosing): 45%
plasma Phe decrease from baseline (Pah^enu2 mice; 50 mg/kg, 12 hours): 34%
plasma Phe, mean ± SD (Pah^enu2 mice; 50 mg/kg, 12 hours): 1,119 ± 124 μM
plasma Phe, mean ± SD (Pah^enu2 mice; 250 mg/kg, 3 hours): 764 ± 43 µM
reduction in plasma Phe vs predose (Pah^enu2 mice; 250 mg/kg, 3 hours): 54%
plasma Phe, mean ± SD (Pah^enu2 mice; 250 mg/kg, 12 hours): 648 ± 106 µM
reduction in plasma Phe vs predose (Pah^enu2 mice; 250 mg/kg, 12 hours): 61%
lowering of plasma Phe (Pah^enu2 mice; plasma exposures with target coverage above the IC75): > 40%

NC(=O)N1CCC[C@@H](N(C(=O)NCc2ccc(OC(F)(F)F)cc2F)C2CC2)C1 [JNT-517]
Any CTCAE Grade ≥ 3 (healthy volunteers; MAD 25 mg BID): 0 Number (%)
Any TEAE (healthy volunteers; MAD 25 mg BID): 5 (83.3) Number (%)
Death (healthy volunteers; MAD 25 mg BID): 0 Number (%)
SAE (healthy volunteers; MAD 25 mg BID): 0 Number (%)
TEAE Anxiety (healthy volunteers; MAD 25 mg BID): 0 Number (%)
TEAE Contusion (healthy volunteers; MAD 25 mg BID): 0 Number (%)
TEAE Dehydration (healthy volunteers; MAD 25 mg BID): 0 Number (%)
TEAE Dizziness (healthy volunteers; MAD 25 mg BID): 0 Number (%)
TEAE Drug withdrawal headache (healthy volunteers; MAD 25 mg BID): 1 (16.7) Number (%)
TEAE Dysmenorrhea (healthy volunteers; MAD 25 mg BID): 0 Number (%)
TEAE Flushing (healthy volunteers; MAD 25 mg BID): 0 Number (%)
TEAE Headache (healthy volunteers; MAD 25 mg BID): 3 (50) Number (%)
TEAE Musculoskeletal pain (healthy volunteers; MAD 25 mg BID): 1 (16.7) Number (%)
TEAE Myalgia (healthy volunteers; MAD 25 mg BID): 0 Number (%)
TEAE Nausea (healthy volunteers; MAD 25 mg BID): 0 Number (%)
TEAE Oropharyngeal pain (healthy volunteers; MAD 25 mg BID): 1 (16.7) Number (%)
TEAE Rash (healthy volunteers; MAD 25 mg BID): 0 Number (%)
TEAE Skin injury (healthy volunteers; MAD 25 mg BID): 1 (16.7) Number (%)
TEAE Somnolence (healthy volunteers; MAD 25 mg BID): 1 (16.7) Number (%)
TEAE Swelling of eyelid (healthy volunteers; MAD 25 mg BID): 1 (16.7) Number (%)
TEAE Thirst (healthy volunteers; MAD 25 mg BID): 1 (16.7) Number (%)
TEAE Vascular access site pain (healthy volunteers; MAD 25 mg BID): 0 Number (%)
TEAEs leading to IP discontinuation (healthy volunteers; MAD 25 mg BID): 1 (16.7) Number (%)
Any CTCAE Grade ≥ 3 (healthy volunteers; MAD 75 mg BID): 0 Number (%)
Any TEAE (healthy volunteers; MAD 75 mg BID): 2 (33.3) Number (%)
Death (healthy volunteers; MAD 75 mg BID): 0 Number (%)
SAE (healthy volunteers; MAD 75 mg BID): 0 Number (%)
TEAE Anxiety (healthy volunteers; MAD 75 mg BID): 1 (16.7) Number (%)
TEAE Contusion (healthy volunteers; MAD 75 mg BID): 0 Number (%)
TEAE Dehydration (healthy volunteers; MAD 75 mg BID): 0 Number (%)
TEAE Dizziness (healthy volunteers; MAD 75 mg BID): 1 (16.7) Number (%)
TEAE Drug withdrawal headache (healthy volunteers; MAD 75 mg BID): 0 Number (%)
TEAE Dysmenorrhea (healthy volunteers; MAD 75 mg BID): 1 (16.7) Number (%)
TEAE Flushing (healthy volunteers; MAD 75 mg BID): 1 (16.7) Number (%)
TEAE Headache (healthy volunteers; MAD 75 mg BID): 1 (16.7) Number (%)
TEAE Musculoskeletal pain (healthy volunteers; MAD 75 mg BID): 0 Number (%)
TEAE Myalgia (healthy volunteers; MAD 75 mg BID): 0 Number (%)
TEAE Nausea (healthy volunteers; MAD 75 mg BID): 1 (16.7) Number (%)
TEAE Oropharyngeal pain (healthy volunteers; MAD 75 mg BID): 0 Number (%)
TEAE Rash (healthy volunteers; MAD 75 mg BID): 1 (16.7) Number (%)
TEAE Skin injury (healthy volunteers; MAD 75 mg BID): 0 Number (%)
TEAE Somnolence (healthy volunteers; MAD 75 mg BID): 0 Number (%)
TEAE Swelling of eyelid (healthy volunteers; MAD 75 mg BID): 0 Number (%)
TEAE Thirst (healthy volunteers; MAD 75 mg BID): 0 Number (%)
TEAE Vascular access site pain (healthy volunteers; MAD 75 mg BID): 1 (16.7) Number (%)
TEAEs leading to IP discontinuation (healthy volunteers; MAD 75 mg BID): 0 Number (%)
Any CTCAE Grade ≥ 3 (healthy volunteers; MAD 150 mg QD): 0 Number (%)
Any TEAE (healthy volunteers; MAD 150 mg QD): 4 (66.7) Number (%)
Death (healthy volunteers; MAD 150 mg QD): 0 Number (%)
SAE (healthy volunteers; MAD 150 mg QD): 0 Number (%)
TEAE Anxiety (healthy volunteers; MAD 150 mg QD): 0 Number (%)
TEAE Contusion (healthy volunteers; MAD 150 mg QD): 1 (16.7) Number (%)
TEAE Dehydration (healthy volunteers; MAD 150 mg QD): 1 (16.7) Number (%)
TEAE Dizziness (healthy volunteers; MAD 150 mg QD): 0 Number (%)
TEAE Drug withdrawal headache (healthy volunteers; MAD 150 mg QD): 0 Number (%)
TEAE Dysmenorrhea (healthy volunteers; MAD 150 mg QD): 0 Number (%)
TEAE Flushing (healthy volunteers; MAD 150 mg QD): 0 Number (%)
TEAE Headache (healthy volunteers; MAD 150 mg QD): 2 (33.3) Number (%)
TEAE Musculoskeletal pain (healthy volunteers; MAD 150 mg QD): 0 Number (%)
TEAE Myalgia (healthy volunteers; MAD 150 mg QD): 1 (16.7) Number (%)
TEAE Nausea (healthy volunteers; MAD 150 mg QD): 0 Number (%)
TEAE Oropharyngeal pain (healthy volunteers; MAD 150 mg QD): 0 Number (%)
TEAE Rash (healthy volunteers; MAD 150 mg QD): 0 Number (%)
TEAE Skin injury (healthy volunteers; MAD 150 mg QD): 0 Number (%)
TEAE Somnolence (healthy volunteers; MAD 150 mg QD): 0 Number (%)
TEAE Swelling of eyelid (healthy volunteers; MAD 150 mg QD): 0 Number (%)
TEAE Thirst (healthy volunteers; MAD 150 mg QD): 0 Number (%)
TEAE Vascular access site pain (healthy volunteers; MAD 150 mg QD): 0 Number (%)
TEAEs leading to IP discontinuation (healthy volunteers; MAD 150 mg QD): 0 Number (%)
incidence of AE (healthy volunteers; MAD cohorts, all JNT-517 doses (11 of 18)): 61.1%

— paper PMC11601558, “SLC6A19 inhibition facilitates urinary neutral amino acid excretion and lowers plasma phenylalanine” (JCI Insight, 2024)
